Laboratory results as given in patent publication US20190284176A1, “COMPOSITIONS AND METHODS FOR TREATING CARDIOMYOPATHY” (CASE WESTERN RESERVE UINVERSITY, priority 2018, published 2019).
“Also recorded” adds a separate entry of the source.

Legend:
[1] = target: T1, CCR2 (Mus musculus, UniProt P51683); test: RS-504393 CCR2 blockade in early-phase TAC pressure overload hypertrophy; type: in vivo; conditions: for cardiac macrophage populations / numbers: before and after 1-wk TAC, 2 mg/kg twice daily oral gavage, FACS (FIG. 7), 2 mg/kg
T1 construct: tissue Jackson laboratory (mice); host or cells: whole animal: WT C57BL/6J mice; CCR2 on circulating classic monocytes / infiltrating macrophages
T1 sequence (P51683 whole entry): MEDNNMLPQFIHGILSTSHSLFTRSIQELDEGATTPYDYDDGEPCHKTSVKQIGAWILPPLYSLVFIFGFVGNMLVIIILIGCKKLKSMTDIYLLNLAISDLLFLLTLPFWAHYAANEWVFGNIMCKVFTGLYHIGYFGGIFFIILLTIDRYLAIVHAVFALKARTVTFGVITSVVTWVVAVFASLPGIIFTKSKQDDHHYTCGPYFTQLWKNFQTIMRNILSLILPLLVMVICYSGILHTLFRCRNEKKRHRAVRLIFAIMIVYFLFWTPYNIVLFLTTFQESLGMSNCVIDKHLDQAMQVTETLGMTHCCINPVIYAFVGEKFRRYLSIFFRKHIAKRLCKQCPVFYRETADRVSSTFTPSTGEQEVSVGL
Experimental: (§1) Macrophage depletion was achieved by injection (i.v.) of Clodronate liposomes at 500 ug/kg on every other day, starting from 1-day before or 14-day after cardiac surgery as indicated in specific experiments. PBS-containing liposomes were used as vehicle control (Veh). Clodronate liposomes and control liposomes were obtained from the nonprofit Consortium Foundation Clodronate Liposomes. To inhibit monocyte trafficking in vivo, RS-504393 was dissolved in DMSO, diluted 1:20 in PBS and administrated at 2 mg/kg twice daily by oral gavage, starting from 1-3 day before or 14-day after cardiac surgery as indicated in specific experiments. PBS with 5% DMSO was used as vehicle control.
Transverse aortic constriction (TAC) model and echocardiography were performed as described previously. Mice were anaesthetized by ketamine xylazine cocktail (100 uL i.p.) for TAC surgery to reduce aorta diameter to 27-gauge. Buprenorphine was administrated daily (i.p.) for first 5-days post-TAC. Blood pressure gradient across ligation site was confirmed by Doppler echography. For echocardiography, mice were anaesthetized by inhalation of 1% isoflurane vaporized in 100% oxygen. LV function was recorded at parasternal short axis view in B-mode and M-mode on a VEVO 770 High-Resolution In Vivo Micro-Imaging System (VisualSonics). ECHO data were recorded at steady heart rate above 500 bpm. LV function was calculated as ejection fraction (EF) or fractional shortening (FS).
Peritoneal macrophages were collected as described previously. Cardiac macrophages were gated from whole heart cells using surface antibodies (CD45+CD11b+F4/80+Ly6G-CD64+). Mouse heart is perfused, excised, minced, digested with Type I collagenase, mechanically disrupted and filtered through 70 μm cell strainer to get single cell suspension. Cells are collected by centrifugation, subjected to live-death dye and surface antibody staining, and analyzed by flow cytometry. Cells were also sorted by flow cytometry to collect cardiac macrophages. […] After RBC lysis, cells were stained with surface antibodies and analyzed by FACS. […]

[2] = target: T1, CCR2; test: RS-504393 administration from day 14 post-TAC in established pressure overload hypertrophy; type: in vivo; conditions: established POH
Experimental: as §1
Transverse aortic constriction (TAC) model and echocardiography were performed as described previously. […] LV function was recorded at parasternal short axis view in B-mode and M-mode on a VEVO 770 High-Resolution In Vivo Micro-Imaging System (VisualSonics). ECHO data were recorded at steady heart rate above 500 bpm. LV function was calculated as ejection fraction (EF) or fractional shortening (FS).
Tissue samples were homogenized in QIAzol lysis reagent (Qiagen, 79306) with a TissueLyser (Qiagen). […] Quantitative real-time PCR (qPCR) was performed with either the TaqMan method (Roche Universal ProbeLibrary System) or the SYBR green method on a ViiA 7 Real-Time PCR System (Applied Biosystems). […]

Q: With `Cc1ccc2c(c1)C1(CCN(CCc3nc(-c4ccccc4)oc3C)CC1)OC(=O)N2` [RS-504393] as the molecule, how does the “cardiac macrophage populations / numbers” value [1] read?
A: Its value is “no effect”.

Q: And the “cardiac macrophage populations / numbers” value ([1]; listed as RS)?
A: The value was “no impact”.

Q: And the “cardiac function / POH” value ([1]; before and after 1 wk post-TAC, echocardiography (FIG. 3A), listed as RS)?
A: The value was “no effect; also recorded: no impact”.

Q: And the cardiac hypertrophy ([2]; RS oral administration 2 wk after TAC (FIG. 16))?
A: Its cardiac hypertrophy is “without affecting cardiac hypertrophy”.

Q: What about the “cardiac function (LV function by echocardiography)” value ([2]; RS oral administration 2 wk after TAC, to 6-week post-TAC (FIG. 16)) of the same molecule?
A: Its value is “preserved cardiac function”.
